Data published in ChEMBL document CHEMBL5055685, “Discovery of the First Potent IDO1/IDO2 Dual Inhibitors: A Promising Strategy for Cancer Immunotherapy” (J Med Chem, 2021).
Activity calls are given as the source filed them. The calls are words filed in the database; no cut-off is given here.

What was measured:
[1] = target: Ephrin type-A receptor 6 (Homo sapiens) (UniProt Q9UF33); assay: Inhibition of EPHA6 (unknown origin) at 1 uM
[2] = target: Leucine-rich repeat serine/threonine-protein kinase 2 (Homo sapiens) (UniProt Q5S007); assay: Inhibition of LRRK2 (unknown origin) at 1 uM
[3] = target: Macrophage colony-stimulating factor 1 receptor (Homo sapiens) (UniProt P07333); assay: Inhibition of FMS (unknown origin) at 1 uM
[4] = target: Serine/threonine-protein kinase N2 (Homo sapiens) (UniProt Q16513); assay: Inhibition of PKN2 (unknown origin) at 1 uM
[5] = target: Macrophage-stimulating protein receptor (Homo sapiens) (UniProt Q04912); assay: Inhibition of RON (unknown origin) at 1 uM
HCT-116 [6] = assay: Antitumor activity against human HCT-116 cells xenografted in BALB/c nude mouse assessed as tumor growth inhibition at 100 to 300 mg/kg, ig bid for 21 days by vernier caliper method; assay type: functional, organism-based; settings: dose 100-300 mg/kg, time 21.0 day
[7] = target: Ribosomal protein S6 kinase alpha-1 (Homo sapiens) (UniProt Q15418); assay: Inhibition of RSK1 (unknown origin) at 1 uM
[8] = target: Indoleamine 2,3-dioxygenase 1 (Homo sapiens, UniProt P14902); assay: Inhibition of IDO1 in IFNgamma-stimulated human HeLa cells assessed as reduction in kynurenine formation measured after 48 hrs by spectrophotometry
[9] = target: Ephrin type-B receptor 4 (Homo sapiens) (UniProt P54760); assay: Inhibition of EPHB4 (unknown origin) at 1 uM
[10] = target: Serine/threonine-protein kinase 38-like (Homo sapiens) (UniProt Q9Y2H1); assay: Inhibition of STK38L (unknown origin) at 1 uM
[11] = target: Serine/threonine-protein kinase MAK (Homo sapiens) (UniProt P20794); assay: Inhibition of MAK (unknown origin) at 1 uM
[12] = target: Calcium/calmodulin-dependent protein kinase type IV (Homo sapiens) (UniProt Q16566); assay: Inhibition of CAMK4 (unknown origin) at 1 uM
[13] = target: Lymphokine-activated killer T-cell-originated protein kinase (Homo sapiens) (UniProt Q96KB5); assay: Inhibition of PBK (unknown origin) at 1 uM
[14] = target: Casein kinase I isoform gamma-3 (Homo sapiens) (UniProt Q9Y6M4); assay: Inhibition of CK1gamma3 (unknown origin) at 1 uM
[15] = target: Calcium/calmodulin-dependent protein kinase type II subunit gamma (Homo sapiens) (UniProt Q13555); assay: Inhibition of CAMK2G (unknown origin) at 1 uM
[16] = target: Protein kinase C alpha type (Homo sapiens) (UniProt P17252); assay: Inhibition of PKCalpha (unknown origin)at 1 uM
[17] = target: Rhodopsin kinase GRK1 (Homo sapiens) (UniProt Q15835); assay: Inhibition of GRK1 (unknown origin) at 1 uM
[18] = target: NT-3 growth factor receptor (Homo sapiens) (UniProt Q16288); assay: Inhibition of TRKC (unknown origin) at 1 uM
[19] = target: Ephrin type-A receptor 4 (Homo sapiens) (UniProt P54764); assay: Inhibition of EPHA4 (unknown origin) at 1 uM
[20] = target: Interleukin-1 receptor-associated kinase 1 (Homo sapiens) (UniProt P51617); assay: Inhibition of IRAK1 (unknown origin) at 1 uM
Mus musculus = assay: In vivo inhibition of IDO2 in BALB/c mouse xenografted with human HCT-116 cells assessed as suppression of IDO2 mRNA expression in tumor by quantitative RT-PCR analysis; assay type: functional, organism-based
[21] = target: Calcium/calmodulin-dependent protein kinase kinase 1 (Homo sapiens) (UniProt Q8N5S9); assay: Inhibition of CAMKK1 (unknown origin) at 1 uM
[22] = target: TGF-beta receptor type-2 (Homo sapiens) (UniProt P37173); assay: Inhibition of TGFBR2 (unknown origin) at 1 uM
[23] = target: Dual specificity testis-specific protein kinase 1 (Homo sapiens) (UniProt Q15569); assay: Inhibition of TESK1 (unknown origin) at 1 uM
[24] = Protein binding in Sprague-Dawley rat plasma assessed as fraction unbound by equilibrium dialysis; assay type: ADME, cell-free
[25] = target: Serine/threonine-protein kinase PLK3 (Homo sapiens) (UniProt Q9H4B4); assay: Inhibition of PLK3 (unknown origin) at 1 uM
[26] = target: Phosphorylase b kinase gamma catalytic chain, skeletal muscle/heart isoform (Homo sapiens) (UniProt Q16816); assay: Inhibition of PHKgamma1 (unknown origin) at 1 uM
HCT-116 [27] = assay: Antitumor immunity in BALB/c mouse xenografted with human HCT-116 cells assessed as late Treg cells in spleen by propidium iodide staining based flow cytometry analysis (reference value: 10.3 %); assay type: functional
[28] = target: Dual specificity testis-specific protein kinase 2 (Homo sapiens) (UniProt Q96S53); assay: Inhibition of TESK2 (unknown origin) at 1 uM
[29] = target: Serine/threonine-protein kinase Nek6 (Homo sapiens) (UniProt Q9HC98); assay: Inhibition of NEK6 (unknown origin) at 1 uM
[30] = Apparent permeability across basolateral to apical side in human Caco-2 cells; assay type: ADME, cell-based
[31] = target: Serine/threonine-protein kinase 38 (Homo sapiens) (UniProt Q15208); assay: Inhibition of STK38 (unknown origin) at 1 uM
[32] = target: Tyrosine-protein kinase JAK3 (Homo sapiens) (UniProt P52333); assay: Inhibition of JAK3 (unknown origin) at 1 uM
[33] = target: Serine/threonine-protein kinase ULK1 (Homo sapiens) (UniProt O75385); assay: Inhibition of ULK1 (unknown origin) at 1 uM
[34] = target: Phosphorylase b kinase gamma catalytic chain, liver/testis isoform (Homo sapiens) (UniProt P15735); assay: Inhibition of PHKgamma2 (unknown origin) at 1 uM
[35] = target: Tyrosine-protein kinase Lck (Homo sapiens) (UniProt P06239); assay: Inhibition of LCK (unknown origin) at 1 uM
[36] = target: Interleukin-1 receptor-associated kinase 4 (Homo sapiens) (UniProt Q9NWZ3); assay: Inhibition of IRAK4 (unknown origin) at 1 uM
[37] = target: Death-associated protein kinase 2 (Homo sapiens) (UniProt Q9UIK4); assay: Inhibition of DAPK2 (unknown origin) at 1 uM
[38] = target: Ephrin type-A receptor 2 (Homo sapiens) (UniProt P29317); assay: Inhibition of EPHA2 (unknown origin) at 1 uM
[39] = target: Serine/threonine-protein kinase MRCK alpha (Homo sapiens) (UniProt Q5VT25); assay: Inhibition of MRCKalpha (unknown origin) at 1 uM
[40] = target: Myosin-IIIa (Homo sapiens) (UniProt Q8NEV4); assay: Inhibition of MYO3A (unknown origin) at 1 uM
[41] = target: Insulin receptor-related protein (Homo sapiens) (UniProt P14616); assay: Inhibition of IRR (unknown origin) at 1 uM
[42] = Half life in dog liver microsomes assessed as rate constant; assay type: ADME, Canis lupus familiaris, Microsome

Phosphorylase b kinase gamma catalytic chain, skeletal muscle/heart isoform (Homo sapiens), sequence (Q16816 whole entry, looked up, canonical isoform): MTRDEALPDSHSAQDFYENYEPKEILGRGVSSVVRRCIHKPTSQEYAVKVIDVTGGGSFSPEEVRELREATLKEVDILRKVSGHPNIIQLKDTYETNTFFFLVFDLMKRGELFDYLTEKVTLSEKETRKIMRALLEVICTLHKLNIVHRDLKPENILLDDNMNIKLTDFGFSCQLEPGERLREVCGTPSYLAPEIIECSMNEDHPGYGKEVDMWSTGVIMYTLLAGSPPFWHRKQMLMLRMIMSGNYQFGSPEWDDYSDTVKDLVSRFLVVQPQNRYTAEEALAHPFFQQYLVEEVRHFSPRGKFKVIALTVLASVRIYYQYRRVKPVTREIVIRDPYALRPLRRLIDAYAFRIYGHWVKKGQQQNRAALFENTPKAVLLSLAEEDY
Ephrin type-A receptor 4 (Homo sapiens), sequence (P54764 whole entry): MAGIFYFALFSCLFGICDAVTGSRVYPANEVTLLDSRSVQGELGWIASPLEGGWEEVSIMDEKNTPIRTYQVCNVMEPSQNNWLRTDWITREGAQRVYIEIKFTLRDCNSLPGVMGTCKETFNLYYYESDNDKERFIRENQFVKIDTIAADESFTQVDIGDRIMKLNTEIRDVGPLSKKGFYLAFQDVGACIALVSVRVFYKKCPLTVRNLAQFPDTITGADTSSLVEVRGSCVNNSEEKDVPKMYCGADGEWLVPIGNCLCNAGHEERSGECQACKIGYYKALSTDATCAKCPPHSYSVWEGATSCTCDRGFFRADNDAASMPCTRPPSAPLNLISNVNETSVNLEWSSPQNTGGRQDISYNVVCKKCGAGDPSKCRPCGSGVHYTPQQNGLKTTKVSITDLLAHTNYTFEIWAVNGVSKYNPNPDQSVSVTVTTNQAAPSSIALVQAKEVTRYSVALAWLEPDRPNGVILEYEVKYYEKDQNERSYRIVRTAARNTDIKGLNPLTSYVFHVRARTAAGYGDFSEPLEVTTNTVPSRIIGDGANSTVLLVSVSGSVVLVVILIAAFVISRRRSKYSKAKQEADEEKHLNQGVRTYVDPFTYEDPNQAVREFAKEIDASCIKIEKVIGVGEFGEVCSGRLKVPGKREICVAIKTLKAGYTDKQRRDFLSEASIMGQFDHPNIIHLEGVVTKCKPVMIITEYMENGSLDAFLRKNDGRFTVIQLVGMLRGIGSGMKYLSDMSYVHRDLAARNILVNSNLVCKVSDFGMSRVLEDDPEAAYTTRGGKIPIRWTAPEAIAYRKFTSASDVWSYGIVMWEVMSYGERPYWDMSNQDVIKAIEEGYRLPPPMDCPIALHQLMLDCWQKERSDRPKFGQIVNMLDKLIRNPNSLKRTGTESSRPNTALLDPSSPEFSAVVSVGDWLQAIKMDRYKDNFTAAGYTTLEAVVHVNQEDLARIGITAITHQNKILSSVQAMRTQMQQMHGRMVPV
Serine/threonine-protein kinase PLK3 (Homo sapiens), sequence (Q9H4B4 whole entry, looked up, canonical isoform): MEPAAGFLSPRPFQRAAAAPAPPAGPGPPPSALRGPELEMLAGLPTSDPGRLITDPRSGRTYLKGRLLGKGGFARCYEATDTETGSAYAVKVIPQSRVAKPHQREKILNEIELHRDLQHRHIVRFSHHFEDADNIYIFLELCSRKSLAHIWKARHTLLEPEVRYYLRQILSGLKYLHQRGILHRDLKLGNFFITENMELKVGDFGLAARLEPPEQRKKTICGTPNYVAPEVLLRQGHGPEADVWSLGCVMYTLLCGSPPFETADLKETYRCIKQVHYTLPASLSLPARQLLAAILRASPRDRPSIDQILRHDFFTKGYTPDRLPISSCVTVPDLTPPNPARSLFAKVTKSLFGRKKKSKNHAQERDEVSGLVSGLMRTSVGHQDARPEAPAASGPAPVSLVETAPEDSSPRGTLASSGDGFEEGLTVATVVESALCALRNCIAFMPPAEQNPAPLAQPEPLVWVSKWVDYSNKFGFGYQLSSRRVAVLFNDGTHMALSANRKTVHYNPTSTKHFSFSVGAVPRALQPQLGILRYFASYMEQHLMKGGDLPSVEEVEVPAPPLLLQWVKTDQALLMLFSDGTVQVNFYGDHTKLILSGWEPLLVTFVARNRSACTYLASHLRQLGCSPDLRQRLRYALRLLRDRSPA
Serine/threonine-protein kinase 38-like (Homo sapiens), sequence (Q9Y2H1 2-464 limits assumed): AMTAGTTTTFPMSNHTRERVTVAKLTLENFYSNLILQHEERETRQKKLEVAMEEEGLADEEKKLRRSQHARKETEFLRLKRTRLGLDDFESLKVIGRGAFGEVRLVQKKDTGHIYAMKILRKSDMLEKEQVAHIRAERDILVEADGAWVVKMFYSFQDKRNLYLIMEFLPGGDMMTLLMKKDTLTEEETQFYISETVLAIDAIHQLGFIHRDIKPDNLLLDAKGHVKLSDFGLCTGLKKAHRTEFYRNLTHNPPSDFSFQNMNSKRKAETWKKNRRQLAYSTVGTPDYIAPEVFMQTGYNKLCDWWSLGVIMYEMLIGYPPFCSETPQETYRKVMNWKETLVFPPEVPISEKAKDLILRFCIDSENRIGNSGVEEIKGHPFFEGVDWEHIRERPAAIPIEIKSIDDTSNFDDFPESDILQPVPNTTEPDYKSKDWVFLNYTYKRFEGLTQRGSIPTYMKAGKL
Ribosomal protein S6 kinase alpha-1 (Homo sapiens), sequence (Q15418 whole entry): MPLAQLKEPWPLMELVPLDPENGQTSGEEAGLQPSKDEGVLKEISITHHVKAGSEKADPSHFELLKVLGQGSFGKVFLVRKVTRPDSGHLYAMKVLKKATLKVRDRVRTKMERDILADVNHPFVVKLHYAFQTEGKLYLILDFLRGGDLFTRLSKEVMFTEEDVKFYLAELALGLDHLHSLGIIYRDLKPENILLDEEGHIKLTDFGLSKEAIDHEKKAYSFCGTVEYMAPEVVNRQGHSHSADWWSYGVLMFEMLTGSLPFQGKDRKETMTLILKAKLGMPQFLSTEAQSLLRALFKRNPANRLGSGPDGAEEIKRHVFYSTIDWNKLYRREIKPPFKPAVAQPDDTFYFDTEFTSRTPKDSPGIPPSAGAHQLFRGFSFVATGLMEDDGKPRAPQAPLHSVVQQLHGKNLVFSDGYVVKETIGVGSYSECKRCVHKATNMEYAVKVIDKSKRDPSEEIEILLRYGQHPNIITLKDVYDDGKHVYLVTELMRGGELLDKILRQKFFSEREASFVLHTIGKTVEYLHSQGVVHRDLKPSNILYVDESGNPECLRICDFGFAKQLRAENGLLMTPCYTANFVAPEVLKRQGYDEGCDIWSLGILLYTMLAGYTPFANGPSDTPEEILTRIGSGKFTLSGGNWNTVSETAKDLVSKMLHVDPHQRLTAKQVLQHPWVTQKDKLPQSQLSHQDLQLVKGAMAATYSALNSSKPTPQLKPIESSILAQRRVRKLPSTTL
Ephrin type-A receptor 2 (Homo sapiens), sequence (P29317 whole entry): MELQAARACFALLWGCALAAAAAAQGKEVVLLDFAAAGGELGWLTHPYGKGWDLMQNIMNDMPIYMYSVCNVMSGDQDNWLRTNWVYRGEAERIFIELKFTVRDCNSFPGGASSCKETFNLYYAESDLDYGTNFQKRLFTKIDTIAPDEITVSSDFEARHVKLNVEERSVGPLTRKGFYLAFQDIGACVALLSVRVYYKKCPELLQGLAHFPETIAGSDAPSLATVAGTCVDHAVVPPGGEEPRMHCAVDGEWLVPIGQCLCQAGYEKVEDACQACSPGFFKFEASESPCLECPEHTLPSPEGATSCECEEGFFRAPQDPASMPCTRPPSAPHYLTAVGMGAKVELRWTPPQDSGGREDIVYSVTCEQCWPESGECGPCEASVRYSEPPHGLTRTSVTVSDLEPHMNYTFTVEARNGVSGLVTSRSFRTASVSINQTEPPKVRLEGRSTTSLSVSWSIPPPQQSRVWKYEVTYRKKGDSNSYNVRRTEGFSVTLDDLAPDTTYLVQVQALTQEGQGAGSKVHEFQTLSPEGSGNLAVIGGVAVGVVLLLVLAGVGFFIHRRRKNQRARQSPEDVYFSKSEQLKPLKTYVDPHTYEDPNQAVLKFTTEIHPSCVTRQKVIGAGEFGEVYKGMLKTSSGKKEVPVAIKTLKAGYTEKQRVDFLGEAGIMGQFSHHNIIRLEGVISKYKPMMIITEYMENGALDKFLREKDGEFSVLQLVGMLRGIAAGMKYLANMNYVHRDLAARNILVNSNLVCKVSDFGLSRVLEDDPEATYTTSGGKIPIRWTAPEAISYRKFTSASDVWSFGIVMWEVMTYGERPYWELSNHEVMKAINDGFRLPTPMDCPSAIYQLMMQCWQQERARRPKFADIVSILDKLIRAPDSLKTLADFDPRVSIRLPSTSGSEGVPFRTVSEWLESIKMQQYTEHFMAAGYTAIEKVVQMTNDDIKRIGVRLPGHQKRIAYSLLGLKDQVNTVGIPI
Dual specificity testis-specific protein kinase 1 (Homo sapiens), sequence (Q15569 whole entry, looked up): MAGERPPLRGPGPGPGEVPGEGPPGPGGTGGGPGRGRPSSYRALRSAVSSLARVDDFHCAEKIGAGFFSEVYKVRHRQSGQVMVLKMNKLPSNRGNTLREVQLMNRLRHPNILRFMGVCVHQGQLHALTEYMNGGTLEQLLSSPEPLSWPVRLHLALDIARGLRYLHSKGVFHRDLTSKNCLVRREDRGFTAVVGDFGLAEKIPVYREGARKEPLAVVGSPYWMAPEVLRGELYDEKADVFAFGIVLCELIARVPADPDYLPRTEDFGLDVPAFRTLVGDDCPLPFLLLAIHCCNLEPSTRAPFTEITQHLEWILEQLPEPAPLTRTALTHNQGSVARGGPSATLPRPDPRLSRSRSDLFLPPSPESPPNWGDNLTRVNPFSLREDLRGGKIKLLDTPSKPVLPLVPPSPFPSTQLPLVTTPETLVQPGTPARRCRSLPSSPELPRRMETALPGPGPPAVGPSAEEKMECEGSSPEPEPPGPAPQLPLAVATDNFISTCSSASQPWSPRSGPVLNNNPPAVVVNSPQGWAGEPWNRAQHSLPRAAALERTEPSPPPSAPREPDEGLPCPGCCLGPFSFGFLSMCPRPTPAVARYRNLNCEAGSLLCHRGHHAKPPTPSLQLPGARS

For OCCOCc1cn(CCNc2nonc2/C(=N/O)Nc2ccc(F)c(Br)c2)nn1, the inhibition [1] was “inactive”, the inhibition [2] was “inactive” and the inhibition [3] was “inactive”. The inhibition [4] was “inactive”, the inhibition [5] was “inactive” and the Activity (HCT-116 [6]) was “inactive”. The inhibition [7] was “inactive”, the IC50 [8] was 2.16 nM and the inhibition [9] was “inactive”. The inhibition [10] was “inactive”, the inhibition [11] was “inactive” and the inhibition [12] was “inactive”. The inhibition [13] was “inactive”, the inhibition [14] was “inactive” and the inhibition [15] was “inactive”. The inhibition [16] was “inactive”, the inhibition [17] was “inactive” and the inhibition [18] was “inactive”. For the same compound, the inhibition [19] was “inactive”, the inhibition [20] was “inactive” and the inhibition (Mus musculus) was “Active”. The inhibition [21] was “inactive”, the inhibition [22] was “inactive” and the inhibition [23] was “inactive”. For the same compound, the fraction unbound [24] was 0.0672, the inhibition [25] was “inactive” and the inhibition [26] was “inactive”. The Activity (HCT-116 [27]) was 7.24%, the inhibition [28] was “inactive” and the inhibition [29] was “inactive”. The Papp B→A [30] was 46 ×10⁻⁶ cm/s, the inhibition [31] was “inactive” and the inhibition [32] was “inactive”. The inhibition [33] was “inactive”, the inhibition [34] was “inactive” and the inhibition [35] was “inactive”. For the same compound, the inhibition [36] was “inactive”, the inhibition [37] was “inactive” and the inhibition [38] was “inactive”. The inhibition [39] was “inactive”, the inhibition [40] was “inactive” and the inhibition [41] was “inactive”. For the same compound, the half-life [42] was 5.66 min.
